From PMC7765794 (Nutrients, 2020)

Biological target: T1, human ODC (Homo sapiens, UniProt P11926)
T1 construct: His-tag (N); made in house; host or cells: Escherichia coli JM109
T1 sequence (P11926 1-461): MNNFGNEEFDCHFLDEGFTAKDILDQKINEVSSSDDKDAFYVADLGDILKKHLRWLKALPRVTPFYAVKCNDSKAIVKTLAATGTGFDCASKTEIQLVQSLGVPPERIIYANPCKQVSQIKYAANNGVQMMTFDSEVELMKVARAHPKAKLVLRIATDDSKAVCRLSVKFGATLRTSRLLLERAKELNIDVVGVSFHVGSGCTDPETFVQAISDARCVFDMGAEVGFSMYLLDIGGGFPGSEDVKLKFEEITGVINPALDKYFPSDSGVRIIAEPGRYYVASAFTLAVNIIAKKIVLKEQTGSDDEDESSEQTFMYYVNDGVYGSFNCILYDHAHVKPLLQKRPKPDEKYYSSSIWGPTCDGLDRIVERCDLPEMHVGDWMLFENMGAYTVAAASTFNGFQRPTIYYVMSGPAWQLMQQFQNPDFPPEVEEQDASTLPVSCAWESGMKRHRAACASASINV
Test: ODC enzyme activity assay and inhibition study (CO2-L3K coupled spectrophotometric assay);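 note: His-tagged human ODC expressed in Escherichia coli, activity followed as decarboxylation coupled via PEP carboxylation and malate formation to NADH analog oxidation, absorbance drop at 405 nm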
Format: biochemical
Settings: for ODC suppression activity (in words): purified human ODC enzyme activity; for IC50 / IC50 to ornithine decarboxylase (ODC): purified human ODC, 37 °C, 10 mM ornithine, 0.2 mM PLP, n = 3; for IC50: read-out: IC50 to ornithine decarboxylase (ODC); for IC50 relative to that of myricetin: IC50 greater than that of myricetin

Compound	ODC suppression activity (in words)	IC50 to ornithine decarboxylase (ODC)	further results
Cc1ncc(CO)c(CN)c1O [Pyridoxamine, reference compound]	cannot inhibit ODC activity		ODC suppression activity (in words) (listed as pyridoxamine): none of these compounds were able to suppress ODC activity
O=c1c(O)c(-c2ccc(O)c(O)c2)oc2cc(O)ccc12 [Fisetin]			IC50: 96 µM
O=c1c(-c2ccc(O)cc2)coc2cc(O)ccc12 [Daidzein]	did not show any ODC suppression activity	No inhibition	
O=c1c(O)c(-c2ccccc2)oc2ccccc12 [Flavonol]	little ODC suppression activity	No inhibition	
O=c1cc(-c2ccc(O)cc2)oc2cc(O)cc(O)c12 [Apigenin]	did not show any ODC suppression activity	No inhibition	
O=c1cc(-c2ccc(O)c(O)c2)oc2cc(O)cc(O)c12 [Luteolin]			IC50 relative to that of myricetin: 10 fold; IC50: 90 µM
Cc1ncc(CO)c(C)c1O [4-Deoxypyridoxine, reference compound]	cannot inhibit ODC activity		ODC suppression activity (in words) (listed as 4-deoxypyridoxine): none of these compounds were able to suppress ODC activity
O=c1cc(-c2ccccc2)oc2cc(O)c(O)cc12 [6,7-Dihydroxyflavone]			IC50 relative to that of 7,8-DHF (IC50 greater than that of 7,8-DHF): approximately 100 fold; IC50: 289 µM
O=c1cc(-c2ccccc2)oc2ccc(O)cc12 [6-Hydroxyflavone]	did not show any ODC suppression activity	No inhibition	
CCOc1cc(C=O)ccc1O [Ethyl vanillin, reference compound]	cannot inhibit ODC activity		ODC suppression activity (in words) (listed as ethyl vanillin): none of these compounds were able to suppress ODC activity
O=c1cc(-c2ccccc2)oc2c(O)c(O)ccc12 [7,8-Dihydroxyflavone]			inhibition pattern with respect to L-ornithine (double reciprocal plots): noncompetitive inhibition pattern; IC50: 2.54 µM; Ki (with respect to substrate L-ornithine, noncompetitive fit, read-out: Ki(ornithine) against ODC): 1.4 ± 0.1 µM
NCCCC(N)(C(=O)O)C(F)F (racemic) [DFMO, α-DL-difluoromethylornithine, reference compound]			IC50: ~100 µM
O=C1C[C@@H](c2ccc(O)cc2)Oc2cc(O)cc(O)c21 [Naringenin]	did not show any ODC suppression activity	No inhibition	
O=c1cc(-c2ccccc2)oc2cc(O)ccc12 [7-Hydroxyflavone]	did not show any ODC suppression activity	No inhibition	
O=c1c(O)c(-c2ccc(O)c(O)c2)oc2cc(O)cc(O)c12 [Quercetin]			IC50 relative to that of myricetin: 10 fold; IC50: 82 µM
Cn1c(=O)c2c(ncn2C)n(C)c1=O [Caffeine, reference compound]	cannot inhibit ODC activity		ODC suppression activity (in words) (listed as caffeine): none of these compounds were able to suppress ODC activity
COc1ccc(-c2coc3cc(O)cc(O)c3c2=O)cc1 [Biochanin]	did not show any ODC suppression activity	No inhibition	
O=c1cc(-c2ccccc2)oc2ccccc12 [Flavone]	little ODC suppression activity	No inhibition	
Oc1ccc2c(c1)OCO2 [Sesamol, reference compound]	cannot inhibit ODC activity		ODC suppression activity (in words) (listed as sesamol): none of these compounds were able to suppress ODC activity
Cn1cnc2c1c(=O)[nH]c(=O)n2C [Theobromine, reference compound]	cannot inhibit ODC activity		ODC suppression activity (in words) (listed as theobromine): none of these compounds were able to suppress ODC activity
C[C@@H]1O[C@@H](OC[C@H]2O[C@@H](Oc3c(-c4ccc(O)c(O)c4)oc4cc(O)cc(O)c4c3=O)[C@H](O)[C@@H](O)[C@@H]2O)[C@H](O)[C@H](O)[C@H]1O [Rutin]	did not display apparent ODC-suppressing activity		IC50: > 120 µM
O=c1c(O)c(-c2ccc(O)cc2O)oc2cc(O)cc(O)c12 [Morin]			IC50 relative to that of myricetin: 10 fold; IC50: 82 µM
Cn1c(=O)c2[nH]cnc2n(C)c1=O [Theophylline, reference compound]	cannot inhibit ODC activity		ODC suppression activity (in words) (listed as theophylline): none of these compounds were able to suppress ODC activity
O=C1C[C@@H](c2ccccc2)Oc2cc(O)cc(O)c21 [Pinocembrin]	little ODC suppression activity	No inhibition	
Cc1ncc(CO)c(C(=O)O)c1O [4-Pyridoxic acid, reference compound]	cannot inhibit ODC activity		ODC suppression activity (in words) (listed as 4-pyridoxic acid): none of these compounds were able to suppress ODC activity
O=c1c(O)c(-c2ccc(O)cc2)oc2cc(O)cc(O)c12 [Kaempferol]	did not show any ODC suppression activity		
O=c1cc(-c2ccccc2)oc2cc(O)cc(O)c12 [Chrysin]	little ODC suppression activity	No inhibition	
COc1ccc2c(=O)cc(-c3ccccc3)oc2c1OC [7,8-Dimethoxyflavone]	little ODC suppression activity	No inhibition	
O=C1C=Cc2ccccc2C1=O [1,2-Naphthoquinone, reference compound]	cannot inhibit ODC activity		ODC suppression activity (in words) (listed as 1,2-naphthoquinone): none of these compounds were able to suppress ODC activity
